For data set [1], the system named is old mice. Nature of the data set: Old mouse model: body weight, dietary intake, gastrocnemius weight. The data set is classed as in vivo, 18-month-old C57BL/6 mice. The procedure: An 18-month-old C57BL/6 was purchased, and maintained in the same breeding environment as above the high-fat diet-induced animal model, and fed with a normal chow diet during the experiment. After adapting the old mice to the breeding environment for 1 week, they were randomly divided into a control group and an experimental group, and phosphate-buffered saline was administered to the control group and homoharringtonine (0.545 μg/g body weight) was administered to the experimental group intraperitoneally three times a week for more than 4 months.

The subject of data set [2] is animal model with lower limb fixation-induced muscular atrophy. In words: Animal model with lower limb fixation-induced muscular atrophy: body weight, dietary intake, muscle weights. The data set is classed as in vivo, C57BL/6 male mice. Conditions: lower limb fixation mice; 0.545 μg/g i.p. three times a week for 4 weeks; vs phosphate-buffered saline group. The procedure:
8-week-old C57BL/6 male mice were adapted to the breeding environment for 1 week and then treated with homoharringtonine for 1 week, and the left lower limb was fixed using a stapler and maintained for 3 weeks. The animal model with lower limb fixation-induced muscular atrophy is an animal model for inducing muscular atrophy by reducing a load of body weight, and induction was conducted using a skin stapler (Manipler AZ, Utsunomiya, Tochigi, Japan) according to a method of Caron et al. (A novel hindlimb immobilization procedure for studying skeletal muscular atrophy and recovery in mouse. J Appl Physiol. 2009 June; 106(6):2049-59.). The unfixed right side was used as a control group.
For a total of 4 weeks from 1 week before fixation to 3 weeks of fixation, phosphate-buffered saline was administered to the control group and homoharringtonine (0.545 μg/g body weight) was administered to the experimental group three times a week intraperitoneally.

The structures appear in SMILES notation. Entries after “also recorded” stand apart in the source; their conditions may differ.

As to `COC(=O)C[C@](O)(CCCC(C)(C)O)C(=O)O[C@@H]1C(OC)=C[C@]23CCCN2CCc2cc4c(cc2[C@H]13)OCO4` [homoharringtonine], the body weight result in data set [1] (0.545 μg/g i.p. three times a week, vs phosphate-buffered saline group) is “did not show a significant difference; also recorded: no statistically significant difference”; in data set [2], “no statistically significant difference”. Further, in data set [1] (another experimental group, 6 months of injection, vs control group), the “body weight after 6 months of administration” value is “no significant difference”.

Source of the values: patent publication US20240252510A1, “COMPOSITION CONTAINING HOMOHARRINGTONINE AS ACTIVE INGREDIENT FOR PREVENTING OR TREATING MUSCLE DISEASES” (RESEARCH COOPERATION FOUNDATION OF YEUNGNAM UNIVERSITY, priority 2021, published 2024).
